# Measured values from patent US11178873B2, “Cyclic N-carboxamide compounds useful as herbicides” (FMC CORPORATION, priority 2015, dated 2021).
# Assays:
# Assay type in all cases: in vivo
# [1] = tested on: barnyardgrass (Echinochloa crus-galli); assay: Test A preemergence, barnyardgrass; conditions: 0 to 100 scale, 0 no effect, 100 complete control
# Procedure, shortened: (§1)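 Visual injury scores (0 = no effect, 100 = complete control) were assigned roughly 10 d after treatment by comparison with untreated controls. Chemicals, formulated in a non-phytotoxic solvent mixture containing surfactant, were applied as a preemergence directed soil spray or postemergence to one- to two-leaf plants 2 to 10 cm tall.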
# kochia (Kochia scoparia) [2] = assay: Test A preemergence, kochia; conditions: 0 to 100 scale, 0 no effect, 100 complete control
# Procedure, shortened: as §1
# [3] = tested on: ragweed (common ragweed, Ambrosia elatior); assay: Test A preemergence, ragweed; conditions: 0 to 100 scale, 0 no effect, 100 complete control
# Procedure, shortened: as §1
# [4] = tested on: ryegrass, Italian (Italian ryegrass, Lolium multiflorum); assay: Test A preemergence, ryegrass, Italian; conditions: 0 to 100 scale, 0 no effect, 100 complete control
# Procedure, shortened: as §1
# [5] = tested on: foxtail, giant (giant foxtail, Setaria faberii); assay: Test A preemergence, foxtail, giant; conditions: 0 to 100 scale, 0 no effect, 100 complete control
# Procedure, shortened: as §1
# [6] = tested on: pigweed (Amaranthus retroflexus); assay: Test A preemergence, pigweed; conditions: 0 to 100 scale, 0 no effect, 100 complete control
# Procedure, shortened: as §1
# [7] = tested on: barnyardgrass (Echinochloa crus-galli); assay: Test A postemergence, barnyardgrass; conditions: 0 to 100 scale, 0 no effect, 100 complete control
# Procedure, shortened: as §1
# kochia (Kochia scoparia) [8] = assay: Test A postemergence, kochia; conditions: 0 to 100 scale, 0 no effect, 100 complete control
# Procedure, shortened: as §1
# [9] = tested on: ragweed (common ragweed, Ambrosia elatior); assay: Test A postemergence, ragweed; conditions: 0 to 100 scale, 0 no effect, 100 complete control
# Procedure, shortened: as §1
# [10] = tested on: ryegrass, Italian (Italian ryegrass, Lolium multiflorum); assay: Test A postemergence, ryegrass, Italian; conditions: 0 to 100 scale, 0 no effect, 100 complete control
# Procedure, shortened: as §1
# [11] = tested on: foxtail, giant (giant foxtail, Setaria faberii); assay: Test A postemergence, foxtail, giant; conditions: 0 to 100 scale, 0 no effect, 100 complete control
# Procedure, shortened: as §1
# [12] = tested on: wheat (Triticum aestivum); assay: Test A postemergence, wheat; conditions: 0 to 100 scale, 0 no effect, 100 complete control
# Procedure, shortened: as §1
# corn (Zea mays) = assay: Test A postemergence, corn; conditions: 0 to 100 scale, 0 no effect, 100 complete control
# Procedure, shortened: as §1
# [13] = tested on: pigweed (Amaranthus retroflexus); assay: Test A postemergence, pigweed; conditions: 0 to 100 scale, 0 no effect, 100 complete control
# Procedure, shortened: as §1
# [14] = tested on: blackgrass (Alopecurus myosuroides); assay: Test A postemergence, blackgrass; conditions: 0 to 100 scale, 0 no effect, 100 complete control
# Procedure, shortened: as §1
# [15] = tested on: galium (catchweed bedstraw, Galium aparine); assay: Test A postemergence, galium; conditions: 0 to 100 scale, 0 no effect, 100 complete control
# Procedure, shortened: as §1
# [16] = tested on: barnyardgrass (Echinochloa crus-galli); assay: Test B flooded paddy test, barnyardgrass; conditions: Flood, 250 g ai/ha; scale 0 to 100 (0 no effect, 100 complete control); 13 to 15 d
# Procedure, shortened: (§2)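 Plants grown to the 2-leaf stage. At treatment, pots were flooded to 3 cm above the soil, compound was applied directly to the paddy water, and that depth was held throughout. After 13 to 15 d in the greenhouse, response was rated visually against controls on a 0 (no effect) to 100 (complete control) scale.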
# [17] = tested on: ducksalad (Heteranthera limosa); assay: Test B flooded paddy test, ducksalad; conditions: Flood, 250 g ai/ha; scale 0 to 100 (0 no effect, 100 complete control); 13 to 15 d
# Procedure, shortened: as §2
# rice (Oryza sativa) = assay: Test B flooded paddy test, rice; conditions: Flood, 250 g ai/ha; scale 0 to 100 (0 no effect, 100 complete control); 13 to 15 d
# Procedure, shortened: as §2
# [18] = tested on: sedge, umbrella (small-flower umbrella sedge, Cyperus difformis); assay: Test B flooded paddy test, sedge, umbrella; conditions: Flood, 250 g ai/ha; scale 0 to 100 (0 no effect, 100 complete control); 13 to 15 d
# Procedure, shortened: as §2
Compound,"Plant response rating, Barnyardgrass ([1]; 31 g ai/ha)","Plant response rating, Barnyardgrass ([1]; 125 g ai/ha)","Plant response rating, Kochia (kochia (Kochia scoparia) [2]; 31 g ai/ha)","Plant response rating, Kochia (kochia (Kochia scoparia) [2]; 125 g ai/ha)","Plant response rating, Ragweed ([3]; 31 g ai/ha)","Plant response rating, Ragweed ([3]; 125 g ai/ha)","Plant response rating, Ryegrass, Italian ([4]; 31 g ai/ha)","Plant response rating, Ryegrass, Italian ([4]; 125 g ai/ha)","Plant response rating, Foxtail, Giant ([5]; 31 g ai/ha)","Plant response rating, Foxtail, Giant ([5]; 125 g ai/ha)","Plant response rating, Pigweed ([6]; 31 g ai/ha)","Plant response rating, Pigweed ([6]; 125 g ai/ha)","Plant response rating, Barnyardgrass ([7]; 31 g ai/ha)","Plant response rating, Barnyardgrass ([7]; 125 g ai/ha)","Plant response rating, Kochia (kochia (Kochia scoparia) [8]; 31 g ai/ha)","Plant response rating, Kochia (kochia (Kochia scoparia) [8]; 125 g ai/ha)","Plant response rating, Ragweed ([9]; 31 g ai/ha)","Plant response rating, Ragweed ([9]; 125 g ai/ha)","Plant response rating, Ryegrass, Italian ([10]; 31 g ai/ha)","Plant response rating, Ryegrass, Italian ([10]; 125 g ai/ha)",also measured
CN1CC(c2ccc(C(F)(F)F)cc2)N(C(=O)Nc2ccc(F)cc2F)C1=O (stereo not drawn) [Compound 15],0,0,0,0,0,0,0,0,0,0,0,0,0,0,0,0,0,0,0,0,"Plant response rating, Foxtail, Giant ([11]; 31 g ai/ha): 0; Plant response rating, Foxtail, Giant ([11]; 125 g ai/ha): 0; Plant response rating, Wheat ([12]; 31 g ai/ha): 0; Plant response rating, Wheat ([12]; 125 g ai/ha): 0; Plant response rating, Corn (corn (Zea mays); 31 g ai/ha): 0; Plant response rating, Corn (corn (Zea mays); 125 g ai/ha): 0; Plant response rating, Pigweed ([13]; 31 g ai/ha): 0; Plant response rating, Pigweed ([13]; 125 g ai/ha): 0; Plant response rating, Blackgrass ([14]; 31 g ai/ha): 0; Plant response rating, Blackgrass ([14]; 125 g ai/ha): 0; Plant response rating, Galium ([15]; 31 g ai/ha): 0; Plant response rating, Galium ([15]; 125 g ai/ha): 0; Plant response rating, Barnyardgrass [16]: 10; Plant response rating, Ducksalad [17]: 60; Plant response rating, Rice (rice (Oryza sativa)): 0; Plant response rating, Sedge, Umbrella [18]: 0"
CN1CC(c2cccc(C(F)(F)F)c2)N(C(=O)Nc2ccccc2F)C1=O (stereo not drawn) [Compound 16],0,30,0,0,0,0,0,0,30,70,0,0,0,10,0,0,0,0,0,0,"Plant response rating, Foxtail, Giant ([11]; 31 g ai/ha): 0; Plant response rating, Foxtail, Giant ([11]; 125 g ai/ha): 10; Plant response rating, Wheat ([12]; 31 g ai/ha): 0; Plant response rating, Wheat ([12]; 125 g ai/ha): 0; Plant response rating, Corn (corn (Zea mays); 31 g ai/ha): 0; Plant response rating, Corn (corn (Zea mays); 125 g ai/ha): 0; Plant response rating, Pigweed ([13]; 31 g ai/ha): 0; Plant response rating, Pigweed ([13]; 125 g ai/ha): 0; Plant response rating, Blackgrass ([14]; 31 g ai/ha): 0; Plant response rating, Blackgrass ([14]; 125 g ai/ha): 0; Plant response rating, Galium ([15]; 31 g ai/ha): 0; Plant response rating, Galium ([15]; 125 g ai/ha): 0; Plant response rating, Barnyardgrass [16]: 0; Plant response rating, Ducksalad [17]: 0; Plant response rating, Rice (rice (Oryza sativa)): 0; Plant response rating, Sedge, Umbrella [18]: 0"
CN1CC(c2cccc(C(F)(F)F)c2)N(C(=O)Nc2ccc(F)cc2F)C1=O (stereo not drawn) [Compound 17],0,50,0,20,0,0,0,0,50,80,0,0,0,10,0,0,0,0,0,0,"Plant response rating, Foxtail, Giant ([11]; 31 g ai/ha): 0; Plant response rating, Foxtail, Giant ([11]; 125 g ai/ha): 10; Plant response rating, Wheat ([12]; 31 g ai/ha): 0; Plant response rating, Wheat ([12]; 125 g ai/ha): 0; Plant response rating, Corn (corn (Zea mays); 31 g ai/ha): 0; Plant response rating, Corn (corn (Zea mays); 125 g ai/ha): 0; Plant response rating, Pigweed ([13]; 31 g ai/ha): 0; Plant response rating, Pigweed ([13]; 125 g ai/ha): 0; Plant response rating, Blackgrass ([14]; 31 g ai/ha): 0; Plant response rating, Blackgrass ([14]; 125 g ai/ha): 0; Plant response rating, Galium ([15]; 31 g ai/ha): 0; Plant response rating, Galium ([15]; 125 g ai/ha): 0; Plant response rating, Barnyardgrass [16]: 0; Plant response rating, Ducksalad [17]: 40; Plant response rating, Rice (rice (Oryza sativa)): 0; Plant response rating, Sedge, Umbrella [18]: 0"
CN1CC(c2cccc(C(F)(F)F)c2)N(C(=O)Nc2cccc(F)c2F)C1=O (stereo not drawn) [Compound 18],20,70,0,0,0,0,0,0,70,80,0,0,10,30,0,0,0,0,0,0,"Plant response rating, Foxtail, Giant ([11]; 31 g ai/ha): 10; Plant response rating, Foxtail, Giant ([11]; 125 g ai/ha): 50; Plant response rating, Wheat ([12]; 31 g ai/ha): 0; Plant response rating, Wheat ([12]; 125 g ai/ha): 0; Plant response rating, Corn (corn (Zea mays); 31 g ai/ha): 0; Plant response rating, Corn (corn (Zea mays); 125 g ai/ha): 0; Plant response rating, Pigweed ([13]; 31 g ai/ha): 0; Plant response rating, Pigweed ([13]; 125 g ai/ha): 0; Plant response rating, Blackgrass ([14]; 31 g ai/ha): 0; Plant response rating, Blackgrass ([14]; 125 g ai/ha): 0; Plant response rating, Galium ([15]; 31 g ai/ha): 0; Plant response rating, Galium ([15]; 125 g ai/ha): 0; Plant response rating, Barnyardgrass [16]: 0; Plant response rating, Ducksalad [17]: 65; Plant response rating, Rice (rice (Oryza sativa)): 0; Plant response rating, Sedge, Umbrella [18]: 0"
